Data as given in patent publication US8541033B2, “Production of human antibodies using NOD/SCID/γcnull mice” (Central Institute for Experimental Animals, priority 2000, dated 2013).

Legend:
ED-40515(−) = assay: Effect of CXCR4 antagonist on in vivo growth of ED-40515(−) tumor in NOG mice; details: 7.5×10^7 cells inoculated, KRH-1636 0.14 mg/mouse intraperitoneally every day, 15 days
Procedure: (§1) Using 3 samples of HTLV-1 leukemia derived cell lines [L=Leukemic cell lines: ED-40515(−), MT-1 and TL-Oml], 6 samples of HTLV-1 infected cell lines [IT=infected transformed cell lines: SLB-1, M8116, HUT-102, MT-2, MT-4 and TY9-31MT], 10^7-8 cells/0.5 mL were transplanted to NOG mice and NOD/Shi-scid mice subcutaneously at a left posterior auricle thereof, and to some of them subcutaneously at a gluteal region thereof. Then, the tumor size in the mice, tissue image, and the mice with, and those without, leukemia were chronologically compared for examination, and the relations between these and transcription factors such as NFkB or fluctuation of Tax protein were also analyzed.
(§2) Assuming that effective tumor formation by 10^7 of ED-40515(−) in NOG mice was attributable to active neogenesis of tumoral vessels via CXCR4 of tumor cells, it has been expected that tumor formation would be inhibited as long as there was continuous administration of KRH-1636, a competitive agent of SDF-1 which was a ligand thereof in endothelial cells. However, in the case of ED-40515(−) and SLB-1 (histologically angiotropic) accompanied by bleeding, the mice formed tumors with sizes of 25×18×12 mm and 20×10×18 mm equivalent to those of non-treated group, even though KRH-1636 was intraperitoneally administered every day.

SLB-1 = assay: Effect of CXCR4 antagonist on in vivo growth of SLB-1 tumor in NOG mice; details: 7.5×10^7 cells inoculated, KRH-1636 0.14 mg/mouse intraperitoneally every day, 15 days
Procedure: as §1, §2

C[C@H](NC(=O)[C@H](CCCN=C(N)N)NC(=O)c1ccc(CNCc2ccccn2)cc1)c1cccc2ccccc12 [KRH-1636]
Remarks (tumor) (ED-40515(−)): progressive large tumor
Remarks (tumor) (SLB-1): progressive large tumor
